pIC50: −log10 of the molar value. Read-outs that look alike come from different tables or passages of the source. *1 amine or outer side, *2 acyl side, *3 side chain or, on linkers, in order; H or OH if unused. Where a SMILES comes first, the peptide text is derived from it. Bridges are numbered along the chain shown (N, C = ends). [ ]: non-standard residue; d: D form. Trp(βS-Me) = C[C@@H](c1c[nH]c2ccccc12)[C@H](N)C(=O)O; Phe(3,4,5-F3) = N[C@@H](Cc1cc(F)c(F)c(F)c1)C(=O)O; d(cisHyp) = O=C(O)[C@H]1C[C@@H](O)CN1; NMeY = CN[C@@H](Cc1ccc(O)cc1)C(=O)O; Hyp = O=C(O)[C@@H]1C[C@@H](O)CN1; NMeF = CN[C@@H](Cc1ccccc1)C(=O)O; X1 = O=C([C@H]1COCCN1[*:1])[*:2]; dNMeF = CN[C@H](Cc1ccccc1)C(=O)O; dHyp = O=C(O)[C@H]1C[C@H](O)CN1; NMeNle = CCCC[C@H](NC)C(=O)O; Tle = CC(C)(C)[C@H](N)C(=O)O; NMeA = CN[C@@H](C)C(=O)O; Orn = NCCC[C@H](N)C(=O)O; Dab = NCC[C@H](N)C(=O)O
Biological target: T1, Human PD-L1/PD-1 (Homo sapiens, UniProt Q9NZQ7)
T1 construct: TVMV protease cleavage site (C); made in house; host or cells: HEK293T cells
Experiment: HTRF Human PD-L1/PD-1 binding assay (PD-1-Ig/PD-L1-His)
Conditions: PD-L1-His 10 nM, PD-1-Ig 20 nM
Outline: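 Truncated Fc-fused human PD-1 (aa 25-167) at 20 nM and His-tagged PD-L1 (aa 18-239) at 10 nM final are used, with peptides preincubated 15 min with PD-L1. Detection uses europium-cryptate anti-Ig and APC anti-His antibodies; 665/620 nm ratio.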

[1] = class symbol, read-out: HTRF Human PD-L1/PD-1 Binding Assay IC50 Range

T1 sequence (Q9NZQ7 with tags, fused parts or gaps): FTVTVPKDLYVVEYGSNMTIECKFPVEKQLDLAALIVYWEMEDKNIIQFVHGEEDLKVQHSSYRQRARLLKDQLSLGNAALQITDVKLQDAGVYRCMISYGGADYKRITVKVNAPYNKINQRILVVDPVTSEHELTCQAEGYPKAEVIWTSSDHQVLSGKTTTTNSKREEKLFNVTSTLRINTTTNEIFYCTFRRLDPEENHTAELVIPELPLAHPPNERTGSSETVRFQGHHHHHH

Compound	pIC50 [1]	pIC50 (read-out: HTRF Human PD-L1/PD-1 Binding Assay IC50)
CCCC[C@H]1C(=O)N2CCC[C@@H]2C(=O)N[C@@H](CC(=O)O)C(=O)N[C@@H](C(C)C)C(=O)N(C)[C@@H](Cc2ccccc2)C(=O)N[C@@H](CCN)C(=O)N2CCOC[C@@H]2C(=O)N[C@@H](Cc2c[nH]c3ccccc23)C(=O)N[C@@H](Cc2ccc(O)cc2)C(=O)N[C@@H](CC(C)C)C(=O)N[C@H](C(=O)NCC(N)=O)CSCC(=O)N[C@@H](Cc2cc(F)c(F)c(F)c2)C(=O)N(C)[C@@H](Cc2ccc(O)cc2)C(=O)N1C [Example 10622] ({CH2CO}-[Phe(3,4,5-F3)][NMeY][NMeNle][dP]DV[NMeF][Dab][X1]WYLCG-NH2; thioether N-13)	7.00 to 8.00	–
CCCC[C@H]1C(=O)N2CCC[C@@H]2C(=O)N[C@@H](CC(=O)O)C(=O)N[C@@H](C(C)C)C(=O)N(C)[C@@H](Cc2ccccc2)C(=O)N[C@@H](CCN)C(=O)N2CCOC[C@@H]2C(=O)N[C@@H](Cc2c[nH]c3ccccc23)C(=O)N[C@@H](Cc2ccc(O)cc2)C(=O)N[C@@H](CCN)C(=O)N[C@H](C(=O)NCC(N)=O)CSCC(=O)N[C@@H](Cc2cc(F)c(F)c(F)c2)C(=O)N(C)[C@@H](Cc2ccc(O)cc2)C(=O)N1C [Example 10623] ({CH2CO}-[Phe(3,4,5-F3)][NMeY][NMeNle][dP]DV[NMeF][Dab][X1]WY[Dab]CG-NH2; thioether N-13)	8.00 to 9.00	–
CCCC[C@H]1C(=O)N2CCC[C@@H]2C(=O)N[C@@H](CC(=O)O)C(=O)N[C@@H](C(C)C)C(=O)N(C)[C@@H](Cc2ccccc2)C(=O)N[C@@H](CCN)C(=O)N2CCOC[C@@H]2C(=O)N[C@@H](Cc2c[nH]c3ccccc23)C(=O)N[C@@H](Cc2ccc(O)cc2)C(=O)N[C@@H](CCC(=O)O)C(=O)N[C@H](C(=O)NCC(N)=O)CSCC(=O)N[C@@H](Cc2cc(F)c(F)c(F)c2)C(=O)N(C)[C@@H](Cc2ccc(O)cc2)C(=O)N1C [Example 10624] ({CH2CO}-[Phe(3,4,5-F3)][NMeY][NMeNle][dP]DV[NMeF][Dab][X1]WYECG-NH2; thioether N-13)	7.00 to 8.00	–
CCCC[C@H]1C(=O)N2CCC[C@@H]2C(=O)N[C@@H](CC(=O)O)C(=O)N[C@@H](C(C)C)C(=O)N(C)[C@@H](Cc2ccccc2)C(=O)N[C@@H](CCN)C(=O)N2CCOC[C@@H]2C(=O)N[C@@H](Cc2c[nH]c3ccccc23)C(=O)N[C@@H](Cc2ccc(O)cc2)C(=O)N[C@@H](CCCN)C(=O)N[C@H](C(=O)NCC(N)=O)CSCC(=O)N[C@@H](Cc2cc(F)c(F)c(F)c2)C(=O)N(C)[C@@H](Cc2ccc(O)cc2)C(=O)N1C [Example 10625] ({CH2CO}-[Phe(3,4,5-F3)][NMeY][NMeNle][dP]DV[NMeF][Dab][X1]WY[Orn]CG-NH2; thioether N-13)	7.00 to 8.00	–
CCCC[C@H]1C(=O)N2CCC[C@@H]2C(=O)N[C@@H](CC(=O)O)C(=O)N[C@@H](C(C)C)C(=O)N(C)[C@@H](Cc2ccccc2)C(=O)N[C@@H](CCN)C(=O)N2CCOC[C@@H]2C(=O)N[C@@H](Cc2c[nH]c3ccccc23)C(=O)N[C@@H](Cc2ccc(O)cc2)C(=O)N[C@@H](CCC(N)=O)C(=O)N[C@H](C(=O)NCC(N)=O)CSCC(=O)N[C@@H](Cc2cc(F)c(F)c(F)c2)C(=O)N(C)[C@@H](Cc2ccc(O)cc2)C(=O)N1C [Example 10626] ({CH2CO}-[Phe(3,4,5-F3)][NMeY][NMeNle][dP]DV[NMeF][Dab][X1]WYQCG-NH2; thioether N-13)	7.00 to 8.00	–
CCCC[C@H]1C(=O)N2CCOC[C@@H]2C(=O)N[C@@H](CC(=O)O)C(=O)N[C@@H](C(C)C)C(=O)N(C)[C@@H](Cc2ccccc2)C(=O)N[C@@H](CCN)C(=O)N2CCOC[C@@H]2C(=O)N[C@@H](Cc2c[nH]c3ccccc23)C(=O)N[C@@H](Cc2ccc(O)cc2)C(=O)N[C@@H](CCC(=O)O)C(=O)N[C@H](C(=O)NCC(N)=O)CSCC(=O)N[C@@H](Cc2cc(F)c(F)c(F)c2)C(=O)N(C)[C@@H](Cc2ccc(O)cc2)C(=O)N1C [Example 10628] ({CH2CO}-[Phe(3,4,5-F3)][NMeY][NMeNle][X1]DV[NMeF][Dab][X1]WYECG-NH2; thioether N-13)	7.00 to 8.00	–
CCCC[C@H]1C(=O)N2CCC[C@@H]2C(=O)N[C@@H](CC(=O)O)C(=O)N[C@@H](C(C)C)C(=O)N(C)[C@@H](Cc2ccccc2)C(=O)N[C@@H](CCC(=O)O)C(=O)N2C[C@H](O)C[C@@H]2C(=O)N[C@@H](Cc2c[nH]c3ccccc23)C(=O)N[C@@H](Cc2ccc(O)cc2)C(=O)N[C@@H](CC(C)C)C(=O)N[C@H](C(=O)NCC(N)=O)CSCC(=O)N[C@@H](Cc2cc(F)c(F)c(F)c2)C(=O)N(C)[C@@H](Cc2ccc(O)cc2)C(=O)N1C [Example 10629] ({CH2CO}-[Phe(3,4,5-F3)][NMeY][NMeNle][dP]DV[NMeF]E[d(cisHyp)]WYLCG-NH2; thioether N-13)	7.00 to 8.00	–
CCCC[C@H]1C(=O)N2CCC[C@@H]2C(=O)N[C@@H](CC(=O)O)C(=O)N[C@@H](C(C)C)C(=O)N(C)[C@@H](Cc2ccccc2)C(=O)N[C@@H](CCC(=O)O)C(=O)N2C[C@H](O)C[C@@H]2C(=O)N[C@@H](Cc2c[nH]c3ccccc23)C(=O)N[C@@H](Cc2ccc(O)cc2)C(=O)N[C@@H](CCC(N)=O)C(=O)N[C@H](C(=O)NCC(N)=O)CSCC(=O)N[C@@H](Cc2cc(F)c(F)c(F)c2)C(=O)N(C)[C@@H](Cc2ccc(O)cc2)C(=O)N1C [Example 10631] ({CH2CO}-[Phe(3,4,5-F3)][NMeY][NMeNle][dP]DV[NMeF]E[d(cisHyp)]WYQCG-NH2; thioether N-13)	7.00 to 8.00	–
CCCC[C@H]1C(=O)N2CCC[C@@H]2C(=O)N[C@@H](CC(=O)O)C(=O)N[C@@H](C(C)C)C(=O)N(C)[C@@H](Cc2ccccc2)C(=O)N[C@@H](CCC(=O)O)C(=O)N2C[C@H](O)C[C@@H]2C(=O)N[C@@H](Cc2c[nH]c3ccccc23)C(=O)N[C@@H](Cc2ccc(O)cc2)C(=O)N[C@@H](CCCN)C(=O)N[C@H](C(=O)NCC(N)=O)CSCC(=O)N[C@@H](Cc2cc(F)c(F)c(F)c2)C(=O)N(C)[C@@H](Cc2ccc(O)cc2)C(=O)N1C [Example 10632] ({CH2CO}-[Phe(3,4,5-F3)][NMeY][NMeNle][dP]DV[NMeF]E[d(cisHyp)]WY[Orn]CG-NH2; thioether N-13)	8.00 to 9.00	–
CCCC[C@H]1C(=O)N2CCC[C@@H]2C(=O)N[C@@H](CC(=O)O)C(=O)N[C@@H](C(C)C)C(=O)N(C)[C@@H](Cc2ccccc2)C(=O)N[C@@H](CCC(=O)O)C(=O)N2C[C@H](O)C[C@@H]2C(=O)N[C@@H](Cc2c[nH]c3ccccc23)C(=O)N[C@@H](Cc2ccc(O)cc2)C(=O)N[C@@H](CCC(=O)O)C(=O)N[C@H](C(=O)NCC(N)=O)CSCC(=O)N[C@@H](Cc2cc(F)c(F)c(F)c2)C(=O)N(C)[C@@H](Cc2ccc(O)cc2)C(=O)N1C [Example 10633] ({CH2CO}-[Phe(3,4,5-F3)][NMeY][NMeNle][dP]DV[NMeF]E[d(cisHyp)]WYECG-NH2; thioether N-13)	7.00 to 8.00	–
CCCC[C@H]1C(=O)N2C[C@H](O)C[C@@H]2C(=O)N[C@@H](CC(=O)O)C(=O)N[C@@H](C(C)C)C(=O)N(C)[C@@H](Cc2ccccc2)C(=O)N[C@@H](CCC(=O)O)C(=O)N2C[C@H](O)C[C@@H]2C(=O)N[C@@H](Cc2c[nH]c3ccccc23)C(=O)N[C@@H](Cc2ccc(O)cc2)C(=O)N[C@@H](CCC(=O)O)C(=O)N[C@H](C(=O)NCC(N)=O)CSCC(=O)N[C@@H](Cc2cc(F)c(F)c(F)c2)C(=O)N(C)[C@@H](Cc2ccc(O)cc2)C(=O)N1C [Example 10637] ({CH2CO}-[Phe(3,4,5-F3)][NMeY][NMeNle][d(cisHyp)]DV[NMeF]E[d(cisHyp)]WYECG-NH2; thioether N-13)	7.00 to 8.00	–
CCCC[C@H]1C(=O)N2C[C@H](O)C[C@@H]2C(=O)N[C@@H](CC(=O)O)C(=O)N[C@@H](C(C)C)C(=O)N(C)[C@@H](Cc2ccccc2)C(=O)N[C@@H](CCC(=O)O)C(=O)N2C[C@H](O)C[C@@H]2C(=O)N[C@@H](Cc2c[nH]c3ccccc23)C(=O)N[C@@H](Cc2ccc(O)cc2)C(=O)N[C@@H](CCCN)C(=O)N[C@H](C(=O)NCC(N)=O)CSCC(=O)N[C@@H](Cc2cc(F)c(F)c(F)c2)C(=O)N(C)[C@@H](Cc2ccc(O)cc2)C(=O)N1C [Example 10638] ({CH2CO}-[Phe(3,4,5-F3)][NMeY][NMeNle][d(cisHyp)]DV[NMeF]E[d(cisHyp)]WY[Orn]CG-NH2; thioether N-13)	–	7.90
CCCC[C@H]1C(=O)N2C[C@@H](O)C[C@@H]2C(=O)N[C@@H](CC(=O)O)C(=O)N[C@@H](C(C)C)C(=O)N(C)[C@H](Cc2ccccc2)C(=O)N[C@@H](Cc2ccc(O)cc2)C(=O)N2CCC[C@@H]2C(=O)N[C@@H]([C@@H](C)c2c[nH]c3ccccc23)C(=O)N[C@@H](Cc2ccc(O)cc2)C(=O)N[C@@H](CC(C)C)C(=O)N[C@H](C(=O)NCC(N)=O)CSCC(=O)N[C@@H](Cc2cc(F)c(F)c(F)c2)C(=O)N(C)[C@@H](Cc2ccccc2)C(=O)N1C [Example 10640] ({CH2CO}-[Phe(3,4,5-F3)][NMeF][NMeNle][dHyp]DV[dNMeF]Y[dP][Trp(βS-Me)]YLCG-NH2; thioether N-13)	7.00 to 8.00	–
CCCC[C@H]1C(=O)N(C)[C@@H](CCCC)C(=O)N[C@@H](CCCNC(=N)N)C(=O)N[C@H](C(=O)NCC(N)=O)CSCC(=O)N[C@@H](Cc2ccc(O)cc2)C(=O)N(C)[C@@H](C)C(=O)N[C@@H](CC(N)=O)C(=O)N2CCC[C@H]2C(=O)N[C@@H](CCN)C(=O)N[C@@H](CC(C)C)C(=O)N2C[C@H](O)C[C@H]2C(=O)N[C@@H](Cc2c[nH]c3ccccc23)C(=O)N[C@@H](C(C)(C)C)C(=O)N[C@@H](Cc2c[nH]c3ccccc23)C(=O)N1C [Example 11001] ({CH2CO}-Y[NMeA]NP[Dab]L[Hyp]W[Tle]W[NMeNle][NMeNle]RCG-NH2; thioether N-14)	7.00 to 8.00	–
CCCC[C@H]1C(=O)N(C)[C@@H](CCCC)C(=O)N[C@@H](CCCCN)C(=O)N[C@H](C(=O)NCC(N)=O)CSCC(=O)N[C@@H](Cc2ccc(O)cc2)C(=O)N(C)[C@@H](C)C(=O)N[C@@H](CC(=O)O)C(=O)N2CCC[C@H]2C(=O)N[C@@H](Cc2c[nH]cn2)C(=O)N[C@@H](CC(C)C)C(=O)N2C[C@H](O)C[C@H]2C(=O)N[C@@H](Cc2c[nH]c3ccccc23)C(=O)N[C@@H](CO)C(=O)N[C@@H](Cc2c[nH]c3ccccc23)C(=O)N1C [Example 11002] ({CH2CO}-Y[NMeA]DPHL[Hyp]WSW[NMeNle][NMeNle]KCG-NH2; thioether N-14)	8.00 to 9.00	–
